The values below come from patent publication US20110213025A1, “Catheter Lock Solutions Utilizing Tocopherol and Mid-Chain Fatty Acids” (ProviFlo, LLC, priority 2009, published 2011).

The nature of this data set: saturation point of dodecanoic acid in the liquid lock components at room temperature. To be noted: without heating, soluble in octanoic acid, decanoic and tocopherol, weight/volume. Type of data set: physicochemical. The text has this:
In a fifth aspect of the present invention, a hydrophobic antimicrobial catheter lock solution includes alpha-tocopherol, in a concentration of 0% to 50% by volume/volume and mid-chain fatty acids. The fatty acids may include any combination of octanoic acid (0% to 25% volume/volume), decanoic acid (0% to 12.5% volume/volume), and/or dodecanoic acid (0% to 12.5% weight/volume). The combined formula after dissolving and mixing the chosen mid-chain fatty acid(s) is adjusted to a final volume with the alpha-tocopherol so that the solution has a viscosity greater than about 3 mPa·s. The lock has a viscosity in the range of about 3-5 mPa·s. Dodecanoic acid is a solid soluble in octanoic acid, decanoic and tocopherol. Concentrations of dodecanoic acid of less than about 25% dissolve readily without heating (i.e. 25% is approximately the saturation point of dodecanoic acid at room temperature). Optimal concentrations are most easily achieved by dissolution of dodecanoic acid in octanoic acid prior to adding the tocopherol. Of course, it is also possible to mix any or all of the liquid ingredients (i.e. octanoic acid and/or decanoic acid and/or tocopherol) together first and secondarily dissolve the dodecanoic acid. Alternatively, dodecanoic acid could be mixed with any of the liquids and the remaining liquid components added depending on the concentration of dodecanoic acid. […]

`CCCCCCCCCCCC(=O)O` [dodecanoic acid]: the “saturation point of dodecanoic acid” value is given as “about 25%”.
